Data reported in patent publication US12492373B2, “Production method for nerve tissue” (Racthera Co., Ltd., priority 2014, dated 2025).

What was measured:
[1] = test system: human iPS cells (1231A3 strain); test: Immunostaining of aggregate sections for retinal tissue markers Chx10, Rx; type: cell-based
Description: Here, as step 3, culturing was performed under the following condition 1 and condition 2: Under condition 1(+BMP), on day 6 after the start of suspension culturing, the medium was changed to a medium free of Y27632 and containing human recombinant BMP4 (manufactured by R&D) such that the final concentration of exogenous human recombinant BMP4 was 1.5 nM (55 ng/ml) (FIG. 6B, D). Under condition 2(−BMP), on day 6 after the start of suspension culturing, a half amount of the medium was changed to a medium free of Y27632 and free of a BMP signal transduction pathway activating substance, without adding exogenous human recombinant BMP4 (FIG. 6A, C).
The thus-prepared cell aggregates on day 23 after the start of suspension culturing, which were produced from the above iPS cells that underwent a preconditioning treatment in step 1 as a starting material were fixed with 4% para-formaldehyde to prepare frozen sections. These frozen sections were immunostained for Chx10 (anti-Chx10 antibody, Exalpha, sheep), which is one of the retinal tissue markers, or Rx (anti-Rx antibody, Takara, guinea pig), which is one of the retinal tissue markers. These immunostained sections were observed under an inverted fluorescence microscope.
Cell aggregate were prepared according to the method described in Example 8 under conditions in which human iPS cells using StemFit medium as a feeder-free medium were used as a starting material, TGFβR inhibiting substance (SB431542) or BMPR inhibiting substance (LDN193189) was used in step 1, Shh signal transduction pathway activating substance was used in step 2, and BMP signal transduction pathway activating substance was added or not added in step 3. Neural tissues were formed in all the aggregates formed under all these conditions on day 23 after the start of suspension culturing. The above cell aggregates were fixed with 4% para-formaldehyde to prepare frozen sections. These frozen sections were immunostained for Chx10 (anti-Chx10 antibody, Exalpha, sheep), which is one of the retinal tissue markers, or Rx (anti-Rx antibody, Takara, guinea pig), which is one of the retinal tissue markers. These immunostained sections were observed under an fluorescence microscope. […] Furthermore, it was found from the analysis of serial sections that, in a neural tissue having a high (not less than 95%) proportion of Chx10-positive cells, Rx is also strongly positive (FIG. 9B, D, F, H).
Cell aggregates were prepared according to the method described in Example 10 by using, as a starting material, human iPS cells using Essential 8 medium as a feeder-free culturing, under conditions that TGFβR inhibiting substance (SB431542) are used in step 1, a Shh signal transduction pathway activating substance are used in step 2, and a BMP signal transduction pathway activating substance are added or are not added in step 3. The cell aggregates on day 18 after the start of suspension culturing were each fixed with 4% para-formaldehyde to prepare frozen section. These frozen sections were immunostained for Chx10 (anti-Chx10 antibody, Exalpha, sheep), which is one of the retinal tissue markers, or Rx (anti-Rx antibody, Takara, guinea pig), which is one of the retinal tissue markers, and observed under a fluorescence microscope. […] Furthermore, it was found from the analysis of serial sections that, in a neural tissue having a high (not less than 95%) proportion of Chx10-positive cells, Rx is also strongly positive. […]
A Cell aggregate was formed on day 18 after the start of suspension culturing under every conditions, and a neural tissue was formed (FIG. 14, upper panel). The above cell aggregates on day 18 after the start of suspension culturing were each fixed with 4% para-formaldehyde to prepare frozen section. […]

[2] = test system: human iPS cells (1231A3 strain); test: Immunostaining for pluripotent stem cell marker Oct3/4 after preconditioning; type: cell-based; details: 1 day; SB431542 5 μM, LDN193189 100 nM, SAG 300 nM, or SB431542 5 μM and LDN193189 100 nM; positive = intensity not less than 2 times background
Description: Human iPS cells (1231A3 strain) were subjected to feeder-free culturing according to the method described in Example 1 in StemFit medium until one day before subconfluence. The human iPS cells one day before subconfluence were subjected to feeder-free culturing in the presence of SB431542 (TGFβR inhibitor, 5 μM), LDN193189 (BMPR inhibitor, 100 nM), SAG (Shh activating substance, 300 nM), or TGFβR inhibitor and BMPR inhibitor (SB431542 5 μM, and LDN193189 100 nM) (step 1: preconditioning treatment), or in the absence thereof (step 1: without preconditioning) for 1 day. The obtained cells were each fixed with 4% para-formaldehyde, and immunostaining for Oct3/4, which is one of the pluripotent stem cell markers, was performed and the immunostained cells were subjected to bright field observation and fluorescence image observation under an inverted fluorescence microscope (BIOREVO, KEYENCE).

[3] = Essential 8 medium, SB431542 in step 1, SAG in step 2, addition of BMP4 in step 3, day 18
[4] = Essential 8 medium, SB431542 in step 1, SAG in step 2, no addition of BMP4 in step 3, day 18
[5] = SB431542 or LDN193189 in step 1, SAG 300 nM in step 2, BMP4 1.5 nM in step 3, StemFit, day 23
[6] = LDN193189 100 nM in step 1, no SAG in step 2, BMP4 1.5 nM on day 6 in step 3, day 23
[7] = LDN193189 100 nM in step 1, no SAG in step 2, without BMP4 in step 3, day 23

NC(=O)c1ccc(-c2nc(-c3ccc4c(c3)OCO4)c(-c3ccccn3)[nH]2)cc1 [SB431542, 4-(5-benzol[1,3]dioxol-5-yl-4-pyridin-2-yl-1H-imidazol-2-yl)-benzamide]
proportion of Chx10-positive cells in the total cells [1, 3]: ≥ 20%
proportion of Rx-strong positive cells in the total cells [1, 3]: ≥ 30%
Rx-strong positive (corresponding to retina) [1, 4]: less than 3%
Rx-weak positive (corresponding to neural tissue other than retina) [1, 4]: less than 7%
proportion of Chx10-positive cells [1, 4]: less than 3%
proportion of Rx-positive cells in the total cells [1, 4]: less than 10%
proportion of Chx10-positive cells in the total cells [1, 5]: ≥ 70%
proportion of Rx-positive cells in the total cells [1, 5]: ≥ 80%
Oct3/4 immunostaining of preconditioned cells [2]: Oct3/4-positive

CNC1CCC(N(Cc2cccc(-c3ccncc3)c2)C(=O)c2sc3ccccc3c2Cl)CC1 (centres unmarked) [SAG]
proportion of Chx10-positive cells in the total cells ([1]; A83-01 0.5 μM and SAG 300 nM in step 1, substance added in step 2 (SAG 30 nM, Purmorphamine 0.2 μM or human recombinant Shh 300 ng/ml), BMP4 1.5 nM on day 3, day 20): about 90%
Oct3/4 immunostaining of preconditioned cells [2]: Oct3/4-positive

c1ccc2c(-c3cnn4cc(-c5ccc(N6CCNCC6)cc5)cnc34)ccnc2c1 [LDN193189, 4-[6-(4-piperazin-1-ylphenyl)pyrazolo[1,5-a]pyrimidin-3-yl]quinoline]
proportion of Chx10-positive cells in the total cells [1, 6]: about 60%
proportion of Rx-positive cells in the total cells [1, 6]: about 60%
Rx-strong positive (corresponding to retina) [1, 7]: less than 3%
Rx-weak positive (corresponding to neural tissue other than retina) [1, 7]: less than 7%
proportion of Chx10-positive cells [1, 7]: less than 3%
proportion of Rx-positive cells in the total cells [1, 7]: less than 10%
proportion of Chx10-positive cells in the total cells [1, 5]: ≥ 40%
proportion of Rx-positive cells in the total cells [1, 5]: ≥ 50%
Oct3/4 immunostaining of preconditioned cells [2]: Oct3/4-positive
